{
  "source": "patent US20240335470A1",
  "about": "“CAR T CELLS FOR TREATING CD19+, CD20+ OR CD22+ TUMORS OR B-CELL DERIVED AUTO-IMMUNE DISEASES” (OSPEDALE PEDIATRICO BAMBINO GESU', priority 2020, published 2024)",
  "key": {"iC9-T cells": {"system": "iC9-T cells", "settings": "patients with GVHD after haploidentical iC9-T cells infusion; cited from earlier work"}, "iC9.CAR.CD19 RAJI cells": {"system": "iC9.CAR.CD19 RAJI cells", "assay": "In vitro activation of iC9 by AP1903, RAJI (qPCR)", "assay_type": "cell-based, human", "settings": "20 nM AP1903", "experimental": "(§1) To induce the in vitro activation of iC9, cells were treated once with 20 nM of AP1903 (Medchemexpress, Cat. HY-16046). The percentage of CAR+ cells after the AP1903 treatment was evaluated by FACS at the indicated time points. […] Control cohort was infused with sterile PBS as vehicle solution. Tumor was monitored by weekly IVIS imaging analysis.\n(§2) The average of vector copy number (VCN) per cell was determined by real-time PCR, using a TaqMan probe designed on the retroviral construct using the Primer Express® software (Applied Biosystems) and reported in Table 2 (iC9 Probe and primers iC9).\n(§3) For VCN, each sample was analyzed in triplicate and the average of threshold cycles was used to quantify DNA copies in relation to the mean values of negative control samples. Relative gene expression was calculated using the house-keeping gene ACT1N1 (Hs_02249516 ACT1N1, ThermoFisher Scientific) qPCR was performed employing QuantStudio 12K Flex Real-Time PCR System (ThermoFisher Scientific). For IG/TR PCR-MRD of the DPs, each MRD value was calculated from the corresponding standard curve, and the results were normalized for values of the housekeeping Albumin gene. […]"}, "[1]": {"system": "DAUDI, RAJI and NALM-6 iC9.CAR+ cells", "assay": "In vitro activation of iC9 by AP1903, all cellular models (FACS, VCN)", "assay_type": "cell-based, human", "experimental": "as §1\n(§4) Flow cytometry analysis was performed to determine cell surface antigens expression; monoclonal antibodies for CD45, CD3, CD19, CD22, CD10, CD34 (all from Becton Dickinson, USA) were combined with different fluorescence according to needs. iC9.CAR.CD19 expression was detected using a mAb directed to hCD34 epitope (anti-CD34 QBend-10 PE from R&D System, USA), or CD19 CAR Detection Reagent (Biotin; Miltenyi, Germany). Flow-cytometry analysis was performed using a BD LSRFortessa X-20 cytometer (BD Biosciences, USA) and analyzed by FACSDiva software (BD Biosciences, USA). FACS-sorting on CAR-transduced tumor cell lines was performed on a FACSAria (BD Biosciences, USA).\nas §2, §3"}, "iC9.CAR.CD19 DAUDI cells": {"system": "iC9.CAR.CD19 DAUDI cells", "assay": "In vitro activation of iC9 by AP1903, DAUDI (FACS, qPCR)", "assay_type": "cell-based, human", "settings": "20 nM AP1903", "experimental": "as §1, §4, §2, §3"}, "[2]": {"system": "iC9.CAR.CD19 NALM-6 cells", "assay": "In vitro activation of iC9 by AP1903, NALM-6 (qPCR)", "assay_type": "cell-based, human", "settings": "20 nM AP1903", "experimental": "as §1, §2, §3"}, "[3]": {"system": "iC9.CAR.CD19LH-DAUDI cells", "assay": "NSG xenograft, iC9.CAR.CD19LH-DAUDI, iC9 activation by AP1903", "assay_type": "in vivo, NSG mice", "experimental": "Schematic representation of the experimental design, with iC9.CAR.CD19LH positive FF-Luciferase positive DAUDI cells infused at day-3. At Day 0, mice were evaluated for leukemia engraftment and treated with 100 μg/mouse of AP1903 from day 0 to day 28. (B) Bioluminescence images of each control untreated mouse and each AP1903 treated mouse. Mice were monitored for more than 30 days after AP1903 withdrawal (C) Bioluminescence values over time for each treated mouse in the two cohorts, un-treated (black lines) or AP1903 treated (dotted line) mice. (D) Kaplan-Meier survival curve analysis of leukaemia-bearing mice untreated (black line) or AP1903 treated (blue line). ****p-value=<0.00001. The only mouse (#20) showing a persisting positive signal at IVIS analysis after AP1903 administration was sacrificed at day 35 together with a negative control (#11) and a positive control (mouse not exposed to AP1903 administration, #6), to characterize the leukemia cells.\nas §1"}},
  "data": [
    {"compound": "CC[C@H](C(=O)N1CCCC[C@H]1C(=O)O[C@H](CCc1ccc(OC)c(OC)c1)c1cccc(OCC(=O)NCCNC(=O)COc2cccc([C@@H](CCc3ccc(OC)c(OC)c3)OC(=O)[C@@H]3CCCCN3C(=O)[C@@H](CC)c3cc(OC)c(OC)c(OC)c3)c2)c1)c1cc(OC)c(OC)c(OC)c1", "note": "[AP1903]", "values": [
      {"measurement": "residual iC9-T cells after AP1903 administration", "setting": "iC9-T cells", "result": 1, "unit": "%"},
      {"measurement": "transgene (TG) positivity in remaining cells after AP1903 exposure (qPCR)", "setting": "iC9.CAR.CD19 RAJI cells", "result": 18.6, "unit": "%"},
      {"measurement": "percentage of CAR+ leukemic cells", "setting": "[1]; 20 nM AP1903, 6 hours", "result": "significant reduction in the percentage of CAR+ leukemic cells"},
      {"measurement": "CD19 antigen detection on cells remaining after AP1903", "setting": "[1]; 20 nM AP1903, FIG. 8E, 10B, 10D", "result": "completed re-established detection of CD19 antigen"},
      {"measurement": "average of VCN threshold in AP1903 treated B cells", "setting": "[1]; across all the considered cellular models, 20 nM, FIG. 10F", "result": "0.1±0.1"},
      {"measurement": "re-expansion of iC9.CAR+ leukemic cells on prolonged culture", "setting": "iC9.CAR.CD19 DAUDI cells; FIG. 8E", "result": "not associated to re-expansion"},
      {"measurement": "MFI of CAR expression in AP1903 treated cells", "setting": "iC9.CAR.CD19 DAUDI cells; threshold value, FIG. 10E", "result": "142±22"},
      {"measurement": "transgene (TG) positivity in remaining cells after AP1903 exposure (qPCR)", "setting": "iC9.CAR.CD19 DAUDI cells; DAUDI cells", "result": 22.8, "unit": "%"},
      {"measurement": "transgene (TG) positivity in remaining cells after AP1903 exposure (qPCR)", "setting": "[2]", "result": 0.6, "unit": "%"},
      {"measurement": "complete CAR+ leukemia eradication, number of mice", "setting": "[3]; AP1903 100 μg/mouse i.p. day 1 to day 28", "result": "9 out of 10"},
      {"measurement": "survival of treated mice", "setting": "[3]; AP1903 100 μg/mouse i.p., even after drug suspension, to day 63", "result": 100, "unit": "%"},
      {"measurement": "leukemia recurrence", "setting": "[3]; until day 63 (endpoint of the experiment)", "result": "no mice showing leukemia recurrence"}
    ]}
  ]
}
